Results taken from patent US20250250240A1, “PHENAZINE COMPOUND FOR MEASURING BACTERIAL EFFLUX” (priority 2022, published 2025).
Entries after “also recorded” stand apart in the source; their conditions may differ.

Key:
AcrAB efflux pump [1] = experiment: Bacterial staining (pellet colour) test for AcrAB efflux pump activity; assay type: cell-based, Escherichia coli; settings: 1 μg/mL, 15 min
Protocol: The experimental protocol is the same as that described in the previous examples, except for the bacterial strains used. Briefly, compounds 29 and 392 (1 μg/mL) were added to 5 mL of a cell suspension of different E. coli strains (OD=1.5), mixed by tilting and left to stand on the table at room temperature for 15 min. The cells were then centrifuged at 3500 rpm for 10 min and rinsed with potassium phosphate buffer (PBP). The cell pellet was washed only once.

AcrAB efflux pump [2] = target: T1, AcrAB efflux pump (Escherichia coli, UniProt P31224); experiment: Pellet colour test for AcrAB efflux pump activity in strains pretreated with CCCP; assay type: cell-based; settings: 1 μg/mL; cells pretreated 1 hr with CCCP 5 μg/mL; EC, AG100, AG100A versus AG102
T1 construct: strain AG100 is the wild-type strain of E. coli (Wild) also showing normal efflux; endogenous in cells; host or cells: Escherichia coli ATCC11775, AG100 (wild type), AG102 (AcrAB overexpressing), AG100A (acrAB deleted)
Protocol: The inventors also tested compound 053 (1 μg/mL) on the same Escherichia coli strains with varying levels of AcrAB efflux pump expression. The protocol was slightly modified to introduce a pre-treatment step with Carbonyl Cyanide m-Chlorophenylhydrazone (CCCP). CCCP is a chemical inhibitor of oxidative phosphorylation. It interferes with the transmembrane electrochemical gradient and proton-motive force, and consequently reduces ATP production. The effect of CCCP is to reduce the efficiency of efflux pumps, making it easier to perceive differences in staining between different strains.
The experimental protocol is the same as that described in the examples, with the difference that cells are treated for 1 hr with CCCP (5 μg/mL) in phosphate buffer (PPB). After CCP treatment, the whole experiment is run in PPB instead of MH-II broth from step 4 onwards.

BmrA efflux pump [3] = experiment: Fluorescence measurement (spectrofluorimetry) on BmrA efflux pump mutants; assay type: cell-based, Bacillus subtilis; settings: pump-free mutant (BmrAΔ)
Protocol: (§1) Fluorescence measurement: Bacteria in exponential growth phase are incubated for 15 min in the presence of compound 053. The optical density at 600 nm is then adjusted to 0.5 and 50 μL is transferred to a black microtiter plate. Fluorescence is read in a Tecan M200 microplate reader.
(§2) Bacterial strains: The inventors used • the reference strain Bacillus subtilis 168 (DSM 402) producing a basal level of BmrA, • Bacillus subtilis BmrA+++ overproducing the BmrA pump and • Bacillus subtilis BmrA Δ with the BmrA gene deleted. • (see Steinfels E et al. Biochemistry 43:7491-7502 and Krügel Het al. FEMS Microbiol Lett. 2010 December; 313(2): 155-63).
(§3) The protocols used are identical to those used in example 2-1.

BmrA efflux pump [4] = target: T2, BmrA efflux pump (Bacillus subtilis, UniProt O06967); experiment: as above; assay type: cell-based
T2 construct: endogenous in cells; host or cells: Bacillus subtilis 168 (DSM 402), BmrA+++ overproducer, BmrA deletion strain
Protocol: as §1, §2, §3

BmrA efflux pump [5] = experiment: Bacterial staining (pellet colour) test on BmrA efflux pump mutants; assay type: cell-based, Bacillus subtilis; settings: BmrAΔ (BmrA deleted); 0.75 μg/mL
Protocol: (§4) Bacterial staining: Bacteria in exponential growth phase are incubated for 15 min in the presence of compound 053. The bacteria are then washed twice in phosphate buffer and centrifuged, with the pellets observed with the naked eye.
(§5) The following protocol was followed: • 1. Grow bacteria on a freshly prepared Muller Hilton-II (MH-II) agar plate. Incubate the Petri dish overnight at 37° C. (Note: Incubation temperature and growth time depend on the bacteria used in the experiment). • 2. The next morning, pick one or two colonies from the overnight plate and inoculate them in an Erlenmeyer flask containing 20 mL MH-II broth. • 3. Incubate the Erlenmeyer on an orbital shaker at 37° C. and 160 rpm for 3-4 hrs. Note: This step allows us to obtain cells in exponential phase, so we need to consider the doubling time of the bacteria used. • 4. After incubation, transfer the cells to a centrifuge tube and centrifuge at 4500 rpm for 10 minutes. Discard supernatant. Add fresh MH-II broth to the centrifuge tube and adjust the optical density of the cells to 0.5. • 5. Transfer an aliquot (5 mL) of cells with adjusted optical density to a new centrifuge tube (50 mL). Add 3.75 μL of compound 053 stock solution (1000 μg/mL) to this tube. Cap the tubes and shake thoroughly to mix the compound. Then keep the centrifuge tube on the table for 15 minutes at room temperature. Note: It is preferable to have a larger surface area to facilitate agitation. The final concentration of 053 used in the experiment is 0.75 μg/mL. […] After 15 minutes contact time, centrifuge the tubes for 10-15 minutes at 4500 rpm to obtain cell pellets and discard supernatant. Using 5 mL of phosphate- or potassium phosphate-buffered saline (PBS, pH7), wash the cell pellets thoroughly (PBS, pH7), repeating this operation twice. Note: Pipette several times with a 5 mL or 1 mL pipette during washing. Make sure there are no lumps during pipetting. The purpose of washing is to remove excess dye from the cell surface. • 7. The color variation in the cells is visible to the naked eye on the cell pellet after the two washes. • a. […]

BmrA efflux pump [6] = target: T2, BmrA efflux pump; experiment: as above; assay type: cell-based; settings: 0.75 μg/mL
Protocol: as §4, §5

NorA efflux pump [7] = experiment: Fluorescence measurement (spectrofluorimetry, excitation 530 nm) of treated bacteria; assay type: cell-based, Staphylococcus aureus
Protocol: (§6) Bacterial strains: The inventors used the following strains of Staphylococcus aureus: • CIP 76.25, a reference strain producing a basal level of NorA, • SA1199, a reference strain producing a basal level of NorA, • SA 1199B, an overproducer of the NorA pump, and • SA K1758 with the NorA gene deleted, (Kaatz et al., 2003, Antimicrob Agents Chemother. 2003 February; 47(2): 719-26).
as §1

NorA efflux pump [8] = experiment: Relative fluorescence intensity of treated strains fixed with PFA or ethanol; assay type: cell-based, Staphylococcus aureus; settings: fixing agent 1% w/v PFA or 70% cold ethanol; CIP 76.25, SA, SA1199B, SA K1758
From the text: (§7) The results are consistent with those obtained previously. […] The inventors also tested the impact that a fixing agent such as 1% w/v paraformaldehyde (PFA) or 70% cold ethanol might have on cells treated with compound 053.

NorA efflux pump [9] = experiment: Fluorescence reading by flow cytometry of treated bacteria; assay type: cell-based, Staphylococcus aureus
From the text: The inventors also carried out a fluorescence reading by flow cytometry in order to validate the results previously obtained by spectrofluorimetry. Advantageously, flow cytometry considers only the fluorescence within the cell and not surrounding it, thus enabling direct assessment of the concentration of compound 053 within the cell without the need for rinsing.
as §7

NorA efflux pump [10] = experiment: Bacterial staining (pellet colour) test for NorA efflux pump activity; assay type: cell-based, Staphylococcus aureus; settings: 0.75 μg/mL, 15 min
Protocol: as §6, §4
as §5, with “supernatant.” for “supernatant. Using 5 mL of phosphate- or potassium phosphate-buffered saline (PBS, pH7), wash the cell pellets thoroughly (PBS, pH7), repeating this operation twice. Note: Pipette several times with a 5 mL or 1 mL pipette during washing. Make sure there are no lumps during pipetting. The purpose of washing is to remove excess dye from the cell surface. • 7. The color variation in the cells is visible to the naked eye on the cell pellet after the two washes. • a.”

PatA-PatB transporter = experiment: Bacterial staining (pellet colour) test on PatA-PatB transporter mutants; assay type: cell-based, Streptococcus pneumoniae; settings: 1 μg/mL
Protocol: as §4
as §5, with “agitation.” for “agitation. The final concentration of 053 used in the experiment is 0.75 μg/mL.”

[11] = strain AG100 (wild-type), normal efflux
[12] = strain AG102 (AcrAB overexpression)
[13] = strain EC (ATCC11775), normal efflux
[14] = strain SA 1199B (NorA overproducer)

T2 sequence (O06967 whole entry): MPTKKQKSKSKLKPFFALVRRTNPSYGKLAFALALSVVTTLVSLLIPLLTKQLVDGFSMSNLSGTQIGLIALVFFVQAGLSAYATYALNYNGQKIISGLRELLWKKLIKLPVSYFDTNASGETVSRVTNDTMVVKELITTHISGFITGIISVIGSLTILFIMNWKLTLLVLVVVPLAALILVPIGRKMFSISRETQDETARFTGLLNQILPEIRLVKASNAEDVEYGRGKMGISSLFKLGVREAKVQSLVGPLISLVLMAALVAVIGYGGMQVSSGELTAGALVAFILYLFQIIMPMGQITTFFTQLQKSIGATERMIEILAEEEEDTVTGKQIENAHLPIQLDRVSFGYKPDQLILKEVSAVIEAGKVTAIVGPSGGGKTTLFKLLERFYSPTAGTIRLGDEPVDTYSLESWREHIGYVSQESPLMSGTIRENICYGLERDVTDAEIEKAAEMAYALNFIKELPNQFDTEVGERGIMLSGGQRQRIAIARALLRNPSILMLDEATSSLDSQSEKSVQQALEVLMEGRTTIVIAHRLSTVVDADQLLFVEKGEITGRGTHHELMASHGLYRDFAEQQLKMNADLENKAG
T1 sequence (P0AE06 25-397): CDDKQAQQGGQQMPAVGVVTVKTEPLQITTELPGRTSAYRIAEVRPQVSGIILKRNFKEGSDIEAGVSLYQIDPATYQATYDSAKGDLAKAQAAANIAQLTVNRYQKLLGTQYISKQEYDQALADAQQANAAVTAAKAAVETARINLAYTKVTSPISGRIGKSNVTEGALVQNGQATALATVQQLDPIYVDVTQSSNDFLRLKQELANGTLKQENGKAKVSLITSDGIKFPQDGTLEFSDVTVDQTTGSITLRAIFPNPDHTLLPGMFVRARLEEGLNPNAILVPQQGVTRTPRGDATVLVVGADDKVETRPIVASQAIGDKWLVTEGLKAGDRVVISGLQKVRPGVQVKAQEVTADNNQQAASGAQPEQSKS
T1 sequence (P02930 23-493, further chain): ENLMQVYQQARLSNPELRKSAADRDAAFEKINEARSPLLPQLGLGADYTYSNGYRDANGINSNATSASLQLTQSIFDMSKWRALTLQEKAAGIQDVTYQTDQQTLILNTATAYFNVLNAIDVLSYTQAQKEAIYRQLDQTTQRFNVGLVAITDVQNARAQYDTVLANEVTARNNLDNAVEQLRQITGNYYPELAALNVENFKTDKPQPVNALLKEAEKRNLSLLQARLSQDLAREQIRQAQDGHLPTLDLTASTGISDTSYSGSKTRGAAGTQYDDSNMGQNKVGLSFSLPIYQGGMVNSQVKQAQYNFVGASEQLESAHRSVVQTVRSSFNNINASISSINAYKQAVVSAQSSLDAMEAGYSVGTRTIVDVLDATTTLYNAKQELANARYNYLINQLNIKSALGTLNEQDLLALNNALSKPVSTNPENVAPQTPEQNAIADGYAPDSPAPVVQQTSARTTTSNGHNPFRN
T1 sequence (P31224 whole entry): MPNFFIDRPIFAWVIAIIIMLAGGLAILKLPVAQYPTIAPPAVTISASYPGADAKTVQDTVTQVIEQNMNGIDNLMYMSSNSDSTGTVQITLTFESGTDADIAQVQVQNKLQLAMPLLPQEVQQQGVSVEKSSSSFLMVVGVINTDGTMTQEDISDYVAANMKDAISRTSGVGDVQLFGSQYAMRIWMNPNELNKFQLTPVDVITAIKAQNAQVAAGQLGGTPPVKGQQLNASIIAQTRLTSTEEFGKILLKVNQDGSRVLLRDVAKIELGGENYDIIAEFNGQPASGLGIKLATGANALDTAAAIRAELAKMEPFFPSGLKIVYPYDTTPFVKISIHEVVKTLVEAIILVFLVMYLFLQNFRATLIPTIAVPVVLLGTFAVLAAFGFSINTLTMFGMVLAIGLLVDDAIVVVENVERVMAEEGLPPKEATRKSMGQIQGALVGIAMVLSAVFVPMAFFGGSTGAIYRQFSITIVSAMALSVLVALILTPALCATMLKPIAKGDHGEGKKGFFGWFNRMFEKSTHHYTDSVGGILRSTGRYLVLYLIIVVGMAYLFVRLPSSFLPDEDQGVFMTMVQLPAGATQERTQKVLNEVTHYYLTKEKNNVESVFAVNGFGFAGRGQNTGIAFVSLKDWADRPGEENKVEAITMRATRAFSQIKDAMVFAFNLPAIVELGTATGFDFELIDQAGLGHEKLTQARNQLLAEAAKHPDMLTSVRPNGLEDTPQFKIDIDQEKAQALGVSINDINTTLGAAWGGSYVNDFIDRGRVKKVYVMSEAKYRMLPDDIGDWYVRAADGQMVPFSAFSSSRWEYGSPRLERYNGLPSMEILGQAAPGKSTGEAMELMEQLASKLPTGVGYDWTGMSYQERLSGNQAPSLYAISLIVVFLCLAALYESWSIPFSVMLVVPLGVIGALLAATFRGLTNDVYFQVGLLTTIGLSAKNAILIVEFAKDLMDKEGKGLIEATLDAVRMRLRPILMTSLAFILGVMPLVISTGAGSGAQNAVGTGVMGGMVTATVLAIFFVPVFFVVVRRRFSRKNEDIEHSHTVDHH

SMILES: CCCCCCCC[n+]1c2cc(NCCCC)ccc2nc2cc(NCCOC)c(N)cc21 [compound 392]
- staining of bacteria (pellet colour) (AcrAB efflux pump [1]; [11]): very pale pink
- staining of bacteria (pellet colour) (AcrAB efflux pump [1]; strain AG100A (acrAB deleted)): dark pink stain
- staining of bacteria (pellet colour) (AcrAB efflux pump [1]; [12]): unstained
- staining of bacteria (pellet colour) (AcrAB efflux pump [1]; [13]): very pale pink

SMILES: CCCCNc1ccc2nc3cc(NCCOC)c(N)cc3[n+](CCC)c2c1 [compound 053]
- visual distinction of strains by pellet staining (AcrAB efflux pump [2]): visually possible to distinguish
- fluorescence of treated bacteria (BmrA efflux pump [3]): very high
- fluorescence of treated bacteria (BmrA efflux pump [4]; overproducing strain (BmrA+++)): almost nil
- fluorescence of treated bacteria (BmrA efflux pump [4]; wild-type strain (DSM 402)): intermediate levels of fluorescence
- colour of bacterial pellet (BmrA efflux pump [5]): dark pink
- colour of bacterial pellet (BmrA efflux pump [6]; BmrA+++ (overexpressing BmrA)): white; also recorded: No coloration
- colour of bacterial pellet (BmrA efflux pump [6]; wild-type B. subtilis 168 (DSM 402)): Intermediate pale pink
- fluorescence of treated bacteria (NorA efflux pump [7]; strain CIP 76.25 (low NorA level)): intermediate levels of fluorescence
- fluorescence of treated bacteria (NorA efflux pump [7]; strain SA 1199 (low NorA level)): intermediate levels of fluorescence
- fluorescence of treated bacteria (NorA efflux pump [7]; [14]): almost nil
- fluorescence of treated bacteria (NorA efflux pump [7]; strain SA K1758 (NorA pump-free mutant)): high fluorescence
- efflux differential between strains after fixation (NorA efflux pump [8]): efflux differential between the different strains remains visible
- accumulation in cells (fluorescence intensity by flow cytometry) (NorA efflux pump [9]; NorA-overexpressing strain SA1199B): accumulated very little
- accumulation in cells (fluorescence intensity by flow cytometry) (NorA efflux pump [9]; norA-deleted strain SA K1758): accumulated heavily
- accumulation in cells (fluorescence intensity by flow cytometry) (NorA efflux pump [9]; reference strain SA): accumulated moderately
- accumulation in cells (fluorescence intensity by flow cytometry) (NorA efflux pump [9]; wild-type strain CIP 76.25): accumulated moderately
- colour of bacterial pellet (NorA efflux pump [10]; strain CIP 76.25 (reference, basal NorA)): Intermediate colors; also recorded: intermediate pale pink
- colour of bacterial pellet (NorA efflux pump [10]; [14]): No coloration; also recorded: white/off-white
- colour of bacterial pellet (NorA efflux pump [10]; strain SA K1758 (NorA deleted)): bright dark pink
- colour of bacterial pellet (PatA-PatB transporter; DEL strain (PatA-PatB deleted)): dark pink
- colour of bacterial pellet (PatA-PatB transporter; OVP strain (overexpressing PatA-PatB)): white
- colour of bacterial pellet (PatA-PatB transporter; WT strain (basal PatA-PatB)): dark pink

SMILES: CCCCNc1ccc2nc3cc(NCCC)c(N)cc3[n+](CCCC)c2c1 [compound 29]
- staining of bacteria (pellet colour) (AcrAB efflux pump [1]; [11]): very pale pink
- staining of bacteria (pellet colour) (AcrAB efflux pump [1]; strain AG100A (acrAB deleted)): dark pink stain
- staining of bacteria (pellet colour) (AcrAB efflux pump [1]; [12]): unstained
- staining of bacteria (pellet colour) (AcrAB efflux pump [1]; [13]): very pale pink
